Laboratory results taken from patent publication US20240051952A1, “HMOX1 INDUCERS” (Mitobridge Inc., priority 2019, published 2024).

Tested on: Human Heme Oxygenase-1 (HMOX-1)
Experiment: ELISA assay to measure human heme oxygenase-1 (HMOX-1) in HepG2 lysate
Assay type: cell-based
Details: fold change of human HMOX1 protein levels relative to DMSO control, HepG2
In short: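 HO-1 protein quantified by chemiluminescent sandwich ELISA against a 2-fold standard series starting at 20 ng/ml. Samples were 1:20-diluted HepG2 lysates made in Triton X-100/EDTA buffer with protease inhibitors. Capture antibody coated at 8 μg/ml, detection antibody used at 200 ng/ml, room-temperature (20 °C) steps.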

| Maximum Fold induction | Compound |
| --- | --- |
| 24-35 | Cn1c(Nc2nc3ccc(OCC(F)(F)F)cc3o2)nc2cc(C(=O)NCCO)ccc21 [Example 100, N-(2-hydroxyethyl)-1-methyl-2-((6-(2,2,2-trifluoroethoxy)benzo[d]oxazol-2-yl)amino)-1H-benzo[d]imidazole-5-carboxamide] |
| 29 | Cn1c(Nc2nc3cc(F)c(C(F)(F)F)cc3o2)nc2cc(C(=O)NCCO)ccc21 [Example 108, 2-((5-fluoro-6-(trifluoromethyl)benzo[d]oxazol-2-yl)amino)-N-(2-hydroxyethyl)-1-methyl-1H-benzo[d]imidazole-5-carboxamide] |
| 3 | Cn1c(Nc2nc3ncccc3o2)nc2cc(C(=O)O)ccc21 [Example 111, 1-methyl-2-(oxazolo[4,5-b]pyridin-2-ylamino)-1H-benzo[d]imidazole-5-carboxylic acid] |
| 8-12 | COCCNC(=O)c1cc2nc(Nc3nc4ccc(OC(F)(F)F)cc4o3)n(C)c2cc1F [Example 71, 6-fluoro-N-(2-methoxyethyl)-1-methyl-2-((6-(trifluoromethoxy)benzo[d]oxazol-2-yl)amino)-1H-benzo[d]imidazole-5-carboxamide] |
| 18-56 | COCCNC(=O)c1ccc2c(c1)nc(Nc1nc3cc(F)ccc3o1)n2C [Example 67, 2-((5-fluorobenzo[d]oxazol-2-yl)amino)-N-(2-methoxyethyl)-1-methyl-1H-benzo[d]imidazole-5-carboxamide] |
| 14-23 | CN(C)CC(=O)NCCNC(=O)c1ccc2c(c1)nc(Nc1nc3ccc(OC(F)(F)F)cc3o1)n2C [Example 49, N-(2-(2-(dimethylamino)acetamido)ethyl)-1-methyl-2-((6-(trifluoromethoxy)benzo[d]oxazol-2-yl)amino)-1H-benzo[d]imidazole-5-carboxamide] |
| 24-70 | Cn1c(Nc2nc3ccc(N4CCCC4)cc3o2)nc2cc(C(=O)NCCOCCO)ccc21 [Example 137, N-(2-(2-hydroxyethoxy)ethyl)-1-methyl-2-((6-(pyrrolidin-1-yl)benzo[d]oxazol-2-yl)amino)-1H-benzo[d]imidazole-5-carboxamide] |
| 25-53 | CC(C)C(N)C(=O)OCCOCCNC(=O)c1ccc2c(c1)nc(Nc1nc3ccccc3o1)n2C.Cl (racemic) [Example 30, 2-(2-(2-(benzo[d]oxazol-2-ylamino)-1-methyl-1H-benzo[d]imidazole-5-carboxamido)ethoxy)ethyl DL-valinate hydrochloride] |
| 17-26 | Cn1c(Nc2nc3ccc(Br)cc3o2)nc2cc(C(=O)O)ccc21 [Example 91, 2-((6-bromobenzo[d]oxazol-2-yl)amino)-1-methyl-1H-benzo[d]imidazole-5-carboxylic acid] |
| 13-20 | Cn1c(Nc2nc3ccc(OC(F)(F)F)cc3o2)nc2cc(C(=O)NC(CO)CO)ccc21 [Example 48, N-(1,3-dihydroxypropan-2-yl)-1-methyl-2-((6-(trifluoromethoxy)benzo[d]oxazol-2-yl)amino)-1H-benzo[d]imidazole-5-carboxamide] |
| 11-18 | Cn1c(Nc2nc3ccc(OC(F)F)cc3o2)nc2cc(C(=O)NCCO)ccc21 [Example 64, 2-((6-(difluoromethoxy)benzo[d]oxazol-2-yl)amino)-N-(2-hydroxyethyl)-1-methyl-1H-benzo[d]imidazole-5-carboxamide] |
| 14-20 | Cn1c(Nc2nc3ccc(OC(F)(F)F)cc3o2)nc2cc(C(=O)Nc3cn[nH]c3)ccc21 [Example 46, 1-methyl-N-(1H-pyrazol-4-yl)-2-((6-(trifluoromethoxy)benzo[d]oxazol-2-yl)amino)-1H-benzo[d]imidazole-5-carboxamide] |
| 16-21 | Cn1c(Nc2nc3ccc(F)cc3o2)nc2cc(C(=O)O)ccc21 [Example 68, 2-((6-fluorobenzo[d]oxazol-2-yl)amino)-1-methyl-1H-benzo[d]imidazole-5-carboxylic acid] |
| 31-37 | Cn1c(Nc2nc3ccc(OC(F)(F)F)cc3o2)nc2cc(C(=O)NCCS(C)(=O)=O)ccc21 [Example 54, 1-methyl-N-(2-(methylsulfonyl)ethyl)-2-((6-(trifluoromethoxy)benzo[d]oxazol-2-yl)amino)-1H-benzo[d]imidazole-5-carboxamide] |
| 13-36 | COCCNC(=O)c1ccc2c(c1)nc(Nc1nc3ccc(F)cc3o1)n2C [Example 69, 2-((6-fluorobenzo[d]oxazol-2-yl)amino)-N-(2-methoxyethyl)-1-methyl-1H-benzo[d]imidazole-5-carboxamide] |
| 22-23 | COCCNC(=O)c1ccc2c(c1)nc(Nc1nc3ccc(OC(F)(F)F)cc3o1)n2C1CCOCC1 [Example 80, N-(2-methoxyethyl)-1-(tetrahydro-2H-pyran-4-yl)-2-((6-(trifluoromethoxy)benzo[d]oxazol-2-yl)amino)-1H-benzo[d]imidazole-5-carboxamide] |
| 12-18 | Cn1cc(NC(=O)c2ccc3c(c2)nc(Nc2nc4ccc(OC(F)(F)F)cc4o2)n3C)cn1 [Example 50, 1-methyl-N-(1-methyl-1H-pyrazol-4-yl)-2-((6-(trifluoromethoxy)benzo[d]oxazol-2-yl)amino)-1H-benzo[d]imidazole-5-carboxamide] |
| 21 | O=C(NCCO)c1ccc2c(c1)nc(Nc1nc3ccc(OC(F)(F)F)cc3o1)n2CC1(O)COC1 [Example 95, N-(2-hydroxyethyl)-1-((3-hydroxyoxetan-3-yl)methyl)-2-((6-(trifluoromethoxy)benzo[d]oxazol-2-yl)amino)-1H-benzo[d]imidazole-5-carboxamide] |
| 41-60 | COCCOc1ccc2nc(Nc3nc4cc(C(=O)NCCOCCO)ccc4n3C)oc2c1 [Example 58, N-(2-(2-hydroxyethoxy)ethyl)-2-((6-(2-methoxyethoxy)benzo[d]oxazol-2-yl)amino)-1-methyl-1H-benzo[d]imidazole-5-carboxamide] |
| 26 | CC(O)CONC(=O)c1ccc2c(c1)nc(Nc1nc3ccccc3o1)n2C (stereo not shown) [Example 120, 2-(benzo[d]oxazol-2-ylamino)-N-(2-hydroxypropoxy)-1-methyl-1H-benzo[d]imidazole-5-carboxamide] |
| 45 | Cn1c(Nc2nc3cc(F)c(C(F)(F)F)cc3o2)nc2cc(C(=O)O)ccc21 [Example 107, 2-((5-fluoro-6-(trifluoromethyl)benzo[d]oxazol-2-yl)amino)-1-methyl-1H-benzo[d]imidazole-5-carboxylic acid] |
| 7-38 | Cn1c(Nc2nc3ccccc3o2)nc2cc(C(=O)O)ccc21 [Example 1h, 2-(benzo[d]oxazol-2-ylamino)-1-methyl-1H-benzo[d]imidazole-5-carboxylic acid] |
| 42-56 | COCCNC(=O)c1ccc2c(c1)nc(Nc1nc3ccc(C(C)C)cc3o1)n2C [Example 60, 2-((6-isopropylbenzo[d]oxazol-2-yl)amino)-N-(2-methoxyethyl)-1-methyl-1H-benzo[d]imidazole-5-carboxamide] |
| 6-46 | COCCNC(=O)c1ccc2c(c1)nc(Nc1nc3ccc(OC(F)(F)F)cc3s1)n2C1CCN(C)CC1 [Example 3e, N-(2-methoxyethyl)-1-(1-methylpiperidin-4-yl)-2-((6-(trifluoromethoxy)benzo[d]thiazol-2-yl)amino)-1H-benzo[d]imidazole-5-carboxamide] |

Same assay, conditions: human HMOX1 protein in HepG2 lysate, ELISA; * = average of 2 or more EC50 determinations; NA = Not Active

| Compound | EC50 |
| --- | --- |
| COCCNC(=O)c1ccc2c(c1)nc(Nc1nc3ccc(OC(F)(F)F)cc3o1)n2CC1CCOC1 (stereo not shown) [Example 88, N-(2-methoxyethyl)-1-((tetrahydrofuran-3-yl)methyl)-2-((6-(trifluoromethoxy)benzo[d]oxazol-2-yl)amino)-1H-benzo[d]imidazole-5-carboxamide] | 1500 nM |
